Patent US11214594B2, “Antimicrobial peptide having synergistic antibacterial effect with antibiotics on multidrug resistant bacteria, and use thereof” (priority 2016, dated 2022)
Values after ≈ are worked out from the molar mass of the structure shown. Where two headings read alike, the source gives them in different places. Where a SMILES comes first, the peptide text is derived from it.

Assays:
MDREC 1238 = type: cell-based, Escherichia coli
Outline: (§1)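 Peptides were serially diluted twofold in Mueller-Hinton medium and combined 1:1 with bacterial suspensions prepared at 2×10^6 CFU. Readout was the minimal inhibitory concentration, i.e. the lowest concentration with no growth.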

P. aeruginosa = assay: microbe, parasite or virus in culture; type: cell-based, Pseudomonas aeruginosa
Outline: as §1

MDRPA 2003 = type: cell-based, Pseudomonas aeruginosa
Outline: as §1

MDRAB 12036 = type: cell-based, Acinetobacter baumannii
Outline: as §1

MDRST 8009 = type: cell-based, Salmonella typhimurium; details: agent alone
Outline: as §1

S. epidermidis = assay: microbe, parasite or virus in culture; type: cell-based, Staphylococcus epidermidis
Outline: as §1

MDREC 1229 [1] = assay: MIC of antibiotic during combined treatment with antimicrobial peptide; type: cell-based, Escherichia coli
Outline: (§2)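 Strains in MH medium at 2×10^6 CFU/ml were mixed with peptide diluted stepwise (2:1) from its MIC, then antibiotic dilutions in MH medium were added to give the antibiotic MIC. The reversed set-up, peptide titrated against fixed antibiotic, gave the peptide MIC.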

A. baumannii [2] = assay: as above; type: cell-based, Acinetobacter baumannii; details: for Antibiotic MIC, Erythromycin / Antibiotic MIC, Linezolid / Antibiotic MIC, Vancomycin: A. baumannii
Outline: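 Read-out is the MIC of each combined solution, obtained from MH-medium dilutions of antibiotic added well by well, with a reversed-condition run as well.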

MDRAB 12035 [3] = assay: as above; type: cell-based, Acinetobacter baumannii
Outline: as §2

E. coli = type: cell-based, Escherichia coli; details: E. coli
Outline: as §2

MDREC 1229 [4] = type: cell-based, Escherichia coli
Outline: as §2

A. baumannii [5] = assay: MIC of antimicrobial peptide during combined treatment with antibiotic; type: cell-based, Acinetobacter baumannii
Outline: as §2

MDRAB 12035 [6] = assay: as above; type: cell-based, Acinetobacter baumannii
Outline: as §2

[7] = peptide treatment concentration 1 μg/ml
[8] = peptide treatment concentration 2 μg/ml
[9] = peptide treatment concentration 4 μg/ml
[10] = peptide treatment concentration 6 μg/ml
[11] = peptide treatment concentration 8 μg/ml
[12] = peptide treatment concentration 16 μg/ml
[13] = peptide treatment concentration 32 μg/ml
[14] = peptide treatment concentration 64 μg/ml
[15] = combined with peptide at 1 μg/ml
[16] = combined with peptide at 2 μg/ml
[17] = combined with peptide at 4 μg/ml
[18] = combined with peptide at 6 μg/ml
[19] = combined with peptide at 8 μg/ml
[20] = combined with peptide at 16 μg/ml
[21] = combined with peptide at 32 μg/ml
[22] = combined with peptide at 64 μg/ml
[23] = linezolid 64 μg/ml (Conc./MIC 1/8)
[24] = linezolid 512 μg/ml (Conc./MIC 1)
[25] = vancomycin 512 μg/ml (Conc./MIC 1/2)
[26] = vancomycin 1024 μg/ml (Conc./MIC 1)
[27] = erythromycin 4 μg/ml (Conc./MIC 1/8)
[28] = erythromycin 8 μg/ml (Conc./MIC 1/4)
[29] = erythromycin 16 μg/ml (Conc./MIC 1/2)
[30] = erythromycin 32 μg/ml (Conc./MIC 1)

## CC[C@H](C)[C@H](NC(=O)[C@H](CCCCN)NC(=O)[C@H](Cc1c[nH]c2ccccc12)NC(=O)[C@@H](N)CCCNC(=N)N)C(=O)N[C@@H](Cc1ccccc1)C(=O)N[C@@H](CCCCN)C(=O)N[C@@H](CCCCN)C(=O)N[C@H](C(=O)N1CCC[C@H]1C(=O)N[C@@H](CCCCN)C(=O)N[C@@H](CC(C)C)C(=O)N[C@@H](CC(C)C)C(=O)N[C@@H](Cc1c[nH]cn1)C(=O)N[C@@H](CCC(=O)O)C(=O)N[C@@H](C)C(=O)N[C@@H](CCCCN)C(=O)N[C@@H](CCCCN)C(=O)N[C@@H](Cc1c[nH]c2ccccc12)C(N)=O)[C@@H](C)CC [PapMA-13, RWK IFK KIP KLL HEA KKW-NH2] (H-RWKIFKKIPKLLHEAKKW-NH2; N-terminus assumed)
MDREC 1238
  Minimal inhibitory concentration MIC: 16 µg/mL (≈ 6.81 µM)
P. aeruginosa
  Minimal inhibitory concentration MIC: 128 µg/mL (≈ 54.5 µM)
MDRPA 2003
  Minimal inhibitory concentration MIC: 128 µg/mL (≈ 54.5 µM)
MDRAB 12036
  Minimal inhibitory concentration MIC: 16 µg/mL (≈ 6.81 µM)
MDRST 8009
  Minimal inhibitory concentration MIC: 16 µg/mL (≈ 6.81 µM)
S. epidermidis
  Minimal inhibitory concentration MIC: >128 µg/mL
MDREC 1229 [1]; [7]
  Antibiotic MIC, Erythromycin: >128 µg/mL
  Antibiotic MIC, Linezolid: >128 µg/mL
  Antibiotic MIC, Vancomycin: >128 µg/mL
MDREC 1229 [1]; [8]
  Antibiotic MIC, Erythromycin: 32 µg/mL
  Antibiotic MIC, Linezolid: 128 µg/mL
  Antibiotic MIC, Vancomycin: >128 µg/mL
MDREC 1229 [1]; [9]
  Antibiotic MIC, Erythromycin: 8 µg/mL
  Antibiotic MIC, Linezolid: 64 µg/mL
  Antibiotic MIC, Vancomycin: 64 µg/mL
MDREC 1229 [1]; [10]
  Antibiotic MIC, Erythromycin: 4 µg/mL
  Antibiotic MIC, Linezolid: 8 µg/mL
  Antibiotic MIC, Vancomycin: 16 µg/mL
MDREC 1229 [1]; [11]
  Antibiotic MIC, Erythromycin: 0.5 µg/mL
  Antibiotic MIC, Linezolid: 4 µg/mL
  Antibiotic MIC, Vancomycin: 4 µg/mL
MDREC 1229 [1]; [12]
  Antibiotic MIC, Erythromycin: 0 µg/mL
  Antibiotic MIC, Linezolid: 0 µg/mL
  Antibiotic MIC, Vancomycin: 0 µg/mL
MDREC 1229 [1]; [13]
  Antibiotic MIC, Erythromycin: 0 µg/mL
  Antibiotic MIC, Linezolid: 0 µg/mL
  Antibiotic MIC, Vancomycin: 0 µg/mL
MDREC 1229 [1]; [14]
  Antibiotic MIC, Erythromycin: 0 µg/mL
  Antibiotic MIC, Linezolid: 0 µg/mL
  Antibiotic MIC, Vancomycin: 0 µg/mL
A. baumannii [2]; A. baumannii and MDRAB 12035
  Synergistic effect of antibacterial activity with existing antibiotics compared with PapMA-1: higher level than the PapMA-1 peptide
A. baumannii [2]; [15]
  Antibiotic MIC, Erythromycin: 16 µg/mL
  Antibiotic MIC, Linezolid: 64 µg/mL
  Antibiotic MIC, Vancomycin: 128 µg/mL
A. baumannii [2]; [16]
  Antibiotic MIC, Erythromycin: 8 µg/mL
  Antibiotic MIC, Linezolid: 32 µg/mL
  Antibiotic MIC, Vancomycin: 64 µg/mL
A. baumannii [2]; [17]
  Antibiotic MIC, Erythromycin: 1 µg/mL
  Antibiotic MIC, Linezolid: 4 µg/mL
  Antibiotic MIC, Vancomycin: 4 µg/mL
A. baumannii [2]; [18]
  Antibiotic MIC, Erythromycin: 0.5 µg/mL
  Antibiotic MIC, Linezolid: 2 µg/mL
  Antibiotic MIC, Vancomycin: 1 µg/mL
A. baumannii [2]; [19]
  Antibiotic MIC, Erythromycin: 0.125 µg/mL
  Antibiotic MIC, Linezolid: 1 µg/mL
  Antibiotic MIC, Vancomycin: 0.5 µg/mL
A. baumannii [2]; [20]
  Antibiotic MIC, Erythromycin: 0 µg/mL
  Antibiotic MIC, Linezolid: 0 µg/mL
  Antibiotic MIC, Vancomycin: 0 µg/mL
A. baumannii [2]; [21]
  Antibiotic MIC, Erythromycin: 0 µg/mL
  Antibiotic MIC, Linezolid: 0 µg/mL
  Antibiotic MIC, Vancomycin: 0 µg/mL
A. baumannii [2]; [22]
  Antibiotic MIC, Erythromycin: 0 µg/mL
  Antibiotic MIC, Linezolid: 0 µg/mL
  Antibiotic MIC, Vancomycin: 0 µg/mL
MDRAB 12035 [3]; [7]
  Erythromycin MIC during combined treatment with peptide: 16 µg/mL
  Linezolid MIC during combined treatment with peptide: 128 µg/mL
  Vancomycin MIC during combined treatment with peptide: 128 µg/mL
MDRAB 12035 [3]; [8]
  Erythromycin MIC during combined treatment with peptide: 8 µg/mL
  Linezolid MIC during combined treatment with peptide: 32 µg/mL
  Vancomycin MIC during combined treatment with peptide: 64 µg/mL
MDRAB 12035 [3]; [9]
  Erythromycin MIC during combined treatment with peptide: 4 µg/mL
  Linezolid MIC during combined treatment with peptide: 16 µg/mL
  Vancomycin MIC during combined treatment with peptide: 16 µg/mL
MDRAB 12035 [3]; [10]
  Erythromycin MIC during combined treatment with peptide: 1 µg/mL
  Linezolid MIC during combined treatment with peptide: 8 µg/mL
  Vancomycin MIC during combined treatment with peptide: 2 µg/mL
MDRAB 12035 [3]; [11]
  Erythromycin MIC during combined treatment with peptide: 0.5 µg/mL
  Linezolid MIC during combined treatment with peptide: 2 µg/mL
  Vancomycin MIC during combined treatment with peptide: 1 µg/mL
MDRAB 12035 [3]; [12]
  Erythromycin MIC during combined treatment with peptide: 0 µg/mL
  Linezolid MIC during combined treatment with peptide: 0 µg/mL
  Vancomycin MIC during combined treatment with peptide: 0 µg/mL
MDRAB 12035 [3]; [13]
  Erythromycin MIC during combined treatment with peptide: 0 µg/mL
  Linezolid MIC during combined treatment with peptide: 0 µg/mL
  Vancomycin MIC during combined treatment with peptide: 0 µg/mL
MDRAB 12035 [3]; [14]
  Erythromycin MIC during combined treatment with peptide: 0 µg/mL
  Linezolid MIC during combined treatment with peptide: 0 µg/mL
  Vancomycin MIC during combined treatment with peptide: 0 µg/mL
E. coli; with Erythromycin […] (Conc./MIC 1)
  Peptide MIC: 0 µg/mL
E. coli; with Linezolid […] (Conc./MIC 1)
  Peptide MIC: 0 µg/mL
E. coli; with Vancomycin 1024 μg/ml (Conc./MIC 1)
  Peptide MIC: 0 µg/mL
MDREC 1229 [4]; erythromycin 32 μg/ml (Conc./MIC 1/8)
  Peptide MIC during treatment with antibiotic: 2 µg/mL
MDREC 1229 [4]; erythromycin 64 μg/ml (Conc./MIC 1/4)
  Peptide MIC during treatment with antibiotic: 2 µg/mL
MDREC 1229 [4]; erythromycin […] (Conc./MIC 1)
  Peptide MIC during treatment with antibiotic: 0 µg/mL
MDREC 1229 [4]; erythromycin […] (Conc./MIC 1/2)
  Peptide MIC during treatment with antibiotic: 2 µg/mL
MDREC 1229 [4]; [23]
  Peptide MIC during treatment with antibiotic: 4 µg/mL
MDREC 1229 [4]; [24]
  Peptide MIC during treatment with antibiotic: 0 µg/mL
MDREC 1229 [4]; linezolid […] (Conc./MIC 1/2)
  Peptide MIC during treatment with antibiotic: 2 µg/mL
MDREC 1229 [4]; linezolid […] (Conc./MIC 1/4)
  Peptide MIC during treatment with antibiotic: 2 µg/mL
MDREC 1229 [4]; [25]
  Peptide MIC during treatment with antibiotic: 2 µg/mL
MDREC 1229 [4]; [26]
  Peptide MIC during treatment with antibiotic: 1 µg/mL
MDREC 1229 [4]; vancomycin […] (Conc./MIC 1/4)
  Peptide MIC during treatment with antibiotic: 4 µg/mL
MDREC 1229 [4]; vancomycin […] (Conc./MIC 1/8)
  Peptide MIC during treatment with antibiotic: 8 µg/mL
A. baumannii [5]; [27]
  Peptide MIC during treatment with antibiotic: 4 µg/mL
A. baumannii [5]; [28]
  Peptide MIC during treatment with antibiotic: 2 µg/mL
A. baumannii [5]; [29]
  Peptide MIC during treatment with antibiotic: 1 µg/mL
A. baumannii [5]; [30]
  Peptide MIC during treatment with antibiotic: 0 µg/mL
A. baumannii [5]; linezolid 32 μg/ml (Conc./MIC 1/8)
  Peptide MIC during treatment with antibiotic: 2 µg/mL
A. baumannii [5]; linezolid 64 μg/ml (Conc./MIC 1/4)
  Peptide MIC during treatment with antibiotic: 2 µg/mL
A. baumannii [5]; linezolid […] (Conc./MIC 1)
  Peptide MIC during treatment with antibiotic: 0 µg/mL
A. baumannii [5]; linezolid […] (Conc./MIC 1/2)
  Peptide MIC during treatment with antibiotic: 1 µg/mL
A. baumannii [5]; [25]
  Peptide MIC during treatment with antibiotic: 0.25 µg/mL
A. baumannii [5]; [26]
  Peptide MIC during treatment with antibiotic: 0 µg/mL
A. baumannii [5]; vancomycin […] (Conc./MIC 1/4)
  Peptide MIC during treatment with antibiotic: 0.25 µg/mL
A. baumannii [5]; vancomycin […] (Conc./MIC 1/8)
  Peptide MIC during treatment with antibiotic: 1 µg/mL
MDRAB 12035 [6]; [27]
  Peptide MIC during treatment with erythromycin: 4 µg/mL
MDRAB 12035 [6]; [28]
  Peptide MIC during treatment with erythromycin: 2 µg/mL
MDRAB 12035 [6]; [29]
  Peptide MIC during treatment with erythromycin: 1 µg/mL
MDRAB 12035 [6]; [30]
  Peptide MIC during treatment with erythromycin: 0 µg/mL
MDRAB 12035 [6]; [23]
  Peptide MIC during treatment with linezolid: 2 µg/mL
MDRAB 12035 [6]; [24]
  Peptide MIC during treatment with linezolid: 0 µg/mL
MDRAB 12035 [6]; linezolid […] (Conc./MIC 1/2)
  Peptide MIC during treatment with linezolid: 1 µg/mL
MDRAB 12035 [6]; linezolid […] (Conc./MIC 1/4)
  Peptide MIC during treatment with linezolid: 1 µg/mL
MDRAB 12035 [6]; [25]
  Peptide MIC during treatment with vancomycin: 1 µg/mL
MDRAB 12035 [6]; [26]
  Peptide MIC during treatment with vancomycin: 1 µg/mL
MDRAB 12035 [6]; vancomycin […] (Conc./MIC 1/4)
  Peptide MIC during treatment with vancomycin: 1 µg/mL
MDRAB 12035 [6]; vancomycin […] (Conc./MIC 1/8)
  Peptide MIC during treatment with vancomycin: 2 µg/mL
